Test results from patent publication US20190133997A1, “ARTEMISININ ANALOG, AND USE, METHOD, AND COMPOSITION FOR PROMOTING LIPID CATABOLISM AND IMPROVING SUGAR METABOLISM” (FUDAN UNIVERSITY, priority 2016, published 2019).

Tested on: high fat-fed mice
Assay: Intraperitoneal artemether, adipose tissue in high fat-fed mice
Format: in vivo, Male C57BL/6J mice
Settings: high-fat diet, intraperitoneal 20 mg/kg twice a week, eight weeks
Description: The mice were breeded in the SPF animal laboratory of the Laboratory Animal Center of Fudan University at a room temperature of 21° C.-23° C. with a 12-hour light/dark cycle. […] When the mice were grown to 8-week old, they were randomly divided into a control group and an administration group, with 8 mice in each group. While the mice were fed with a high-fat diet, artemether was injected intraperitoneally. Artemether for intraperitoneal injection was stored at 4° C. in coconut oil at a storage concentration of 6 mg/ml (20 mMol/L), and protected from light. Mice in administration group were injected with artemether at a dose of 20 mg/kg weight. Administration was twice a week for eight weeks. The mice were sacrificed by cervical dislocation and were dissected, and inguinal fat (Inguinal, subcutaneous fat), epididymal fat (Gonadal, visceral fat) and brown fat in the interscapular region (BAT, classic brown fat) were removed, weighed and fixed. The histological analysis of adipose tissue was commissioned by Shanghai Saige Biotech Co., Ltd., which included the steps of fixing, paraffin embedding, sectioning and HE staining.

CO[C@H]1O[C@@H]2O[C@@]3(C)CC[C@H]4[C@H](C)CC[C@@H]([C@H]1C)[C@@]24OO3 [artemether]
adipocyte size (sectioning and HE staining): significantly smaller than that of mice in control group | volume of adipose tissue: significantly smaller than that of mice in control group | weight of adipose tissue: significantly smaller than that of mice in control group
